# From US8637237B2, “Methods, compositions, and systems for the identification of species-specific or developmental stage-specific insecticides” (The University of North Carolina at Greensboro, priority 2003, dated 2014)
# How the values were obtained:
# insect = conditions: from Schneiderman and Gilbert, Science 143; cited from earlier work
# GRdEcR/RXR [1] = target: T1, GRdEcR/RXR (Drosophila melanogaster, UniProt P34021); test: GRdEcR (GEcEc) chimera with RXR, (EcRE)5-ΔMTV reporter in CHO cells; type: cell-based; conditions: 25 μM insecticide; 10 nM MUR
# T1 construct: ligation of a Not I-Bam HI fragment containing the DBD and LBD of a modified EcR cDNA, EcRnx; expressed in transfected cells; host or cells: CHO
# T1 sequence (P34021 259-878 V259R/Q260P/E261P/P331L limits assumed): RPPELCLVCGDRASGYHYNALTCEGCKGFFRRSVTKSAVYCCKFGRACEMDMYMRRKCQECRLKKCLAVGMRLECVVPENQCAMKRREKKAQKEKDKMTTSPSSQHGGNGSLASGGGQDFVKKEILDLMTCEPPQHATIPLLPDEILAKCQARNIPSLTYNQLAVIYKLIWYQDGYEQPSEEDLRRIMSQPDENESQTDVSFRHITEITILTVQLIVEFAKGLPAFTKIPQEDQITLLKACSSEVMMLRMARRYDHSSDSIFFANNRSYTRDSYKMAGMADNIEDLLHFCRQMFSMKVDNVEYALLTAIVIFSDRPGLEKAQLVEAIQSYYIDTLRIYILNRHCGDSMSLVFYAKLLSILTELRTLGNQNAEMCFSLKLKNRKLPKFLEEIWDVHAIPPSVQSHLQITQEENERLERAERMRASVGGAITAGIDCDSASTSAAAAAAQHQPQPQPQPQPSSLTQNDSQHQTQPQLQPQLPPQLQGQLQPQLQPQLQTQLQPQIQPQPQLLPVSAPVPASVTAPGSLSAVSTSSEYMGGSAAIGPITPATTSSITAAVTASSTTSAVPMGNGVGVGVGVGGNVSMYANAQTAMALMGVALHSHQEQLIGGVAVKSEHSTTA
# T1 sequence (P28700 1-467 partner): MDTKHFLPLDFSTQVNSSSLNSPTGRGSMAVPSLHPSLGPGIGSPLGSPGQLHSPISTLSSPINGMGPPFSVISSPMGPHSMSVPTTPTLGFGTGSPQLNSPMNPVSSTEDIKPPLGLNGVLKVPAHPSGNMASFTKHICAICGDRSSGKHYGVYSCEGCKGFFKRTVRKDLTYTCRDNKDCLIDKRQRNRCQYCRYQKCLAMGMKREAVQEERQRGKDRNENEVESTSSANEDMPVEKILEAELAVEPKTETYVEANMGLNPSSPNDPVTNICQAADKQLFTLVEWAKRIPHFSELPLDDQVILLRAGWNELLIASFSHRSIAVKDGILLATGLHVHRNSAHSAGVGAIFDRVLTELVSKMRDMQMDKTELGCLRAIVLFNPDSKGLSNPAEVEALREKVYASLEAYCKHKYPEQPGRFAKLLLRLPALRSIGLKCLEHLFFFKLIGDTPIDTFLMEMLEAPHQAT
# Method: (§1) These experiments employed a mammalian cell culture system using Chinese hamster ovary cells (CHO) to evaluate the transcriptional function of Drosophila melanogaster EcR and USP using methods described previously (U.S. Patent Application Publication No: 2005/0049230; Henrich et al, 2003). Cells were seeded in 6-well polypropylene culture plates (Falcon) with 10^5 cells per well on the day prior to transfection. Transfection was subsequently performed using either calcium phosphate (Kitareewan et al., 1996, Mol. Biol. Cell, 7:1153-1196) or a GenePorter reagent (Gene Therapy Systems, Inc; San Diego, Calif.) following manufacturer's protocols. Each well received 1.25 μg of (EcRE)5-ΔMTV-CAT (five copies of the hsp27 EcRE inserted into an mouse mammary tumor virus (MTV) promoter upstream of the chloramphenicol acetyltransferase (CAT) gene) or (EcRE)5-ΔMTV-LUC (the same promoter attached to firefly luciferase), 1.25 μg of pCH111 (SV40 early promoter linked to the β-galactosidase gene) to normalize CAT activity, and 0.25 μg of each expression plasmid (EcR, FXR, RXR, USP) that was tested. The cells were incubated with plasmid DNA for seven hours and then washed with 1×PBS. Muristerone A (murA; Alexis Biochemicals) or 20-hydroxyecdysone (20E; Sigma) dissolved in ethanol to a concentration of 10 mM was diluted as necessary to the final assay concentration (FAC) in 2 ml of fresh incubation medium that was then applied to the cells. Similarly, JHIII (Sigma) was dissolved in dimethyl sulfoxide (DMSO) to a concentration of […] and diluted into the incubation medium to its final assay concentration (20, 40, 80, 160 μM). […] A corresponding volume of ethanol and DMSO were added to control cells for all experiments. For all experiments, the cells were allowed to incubate with the medium for 24 hours before collection and cell lysates were prepared by described methods (Kitareewan et al., 1996). Both β-galactosidase and CAT reporter activity were measured based on previously used methods (Kitareewan et al, 1996). Luciferase assays using luciferrin followed the specifications of the manufacturer.
# (§2) Transcriptional activity, measured as ^14C-chloramphenicol counts (for measuring CAT activity) or relative luciferase activity (RLU) was quantified for each cell lysate. The counts were then normalized by adjusting for differences in β-galactosidase activity, since β-galactosidase expression is controlled by a constitutive promoter and provides an estimate of cell mass. Data were normalized as fold-induction based on differences in reporter gene activity between hormonally treated and control cells.
# (§3) In an initial series of studies, a GRdEcR chimera that consists of the rat glucocorticoid receptor (GR) activation domain attached to the EcR DBD and LBD (FIG. 1) was cotransfected along with mRXRα into CHO cells. The response of transfected cells to murA was measured using a (EcRE)5-ΔMTV-CAT reporter plasmid that carries five tandem repeats of the hsp27 EcRE linked to the MTV (mouse mammary tumor virus) promoter and the chloramphenicol acetyltransferase gene (CAT).
# (§4) The prominent candidate for this JH-responsive macromolecule in insects is the structurally-related ecdysone receptor (EcR). Like FXR, EcR heterodimerizes with RXR and binds to the hsp27 ecdysone-responsive DNA element (Forman et al., 1995), but distinctively activates transcription in response to muristerone A (MurA or MUR), a synthetic ecdysone (Yao et al., 1992). […] In the experiments shown in FIG. 15A, muristerone A (MUR) was added at the indicated doses in ethanol vehicle, and increasing amounts of JH III (12, 25, or 50 μM) were added (underlying triangles). Numbers over bars indicate the ratio of the GEcEc-dependent activity produced by 50 μM JH III in the presence of the indicated dose of MUR to the activity produced by MUR alone. Relative light units (RLU) from firefly luciferase in cell lysates are expressed relative to renilla luciferase (Promega).
# FXR = target: T2, FXR (Rattus norvegicus, UniProt Q62735); test: cell-based
# T2 sequence (Q62735 1-469): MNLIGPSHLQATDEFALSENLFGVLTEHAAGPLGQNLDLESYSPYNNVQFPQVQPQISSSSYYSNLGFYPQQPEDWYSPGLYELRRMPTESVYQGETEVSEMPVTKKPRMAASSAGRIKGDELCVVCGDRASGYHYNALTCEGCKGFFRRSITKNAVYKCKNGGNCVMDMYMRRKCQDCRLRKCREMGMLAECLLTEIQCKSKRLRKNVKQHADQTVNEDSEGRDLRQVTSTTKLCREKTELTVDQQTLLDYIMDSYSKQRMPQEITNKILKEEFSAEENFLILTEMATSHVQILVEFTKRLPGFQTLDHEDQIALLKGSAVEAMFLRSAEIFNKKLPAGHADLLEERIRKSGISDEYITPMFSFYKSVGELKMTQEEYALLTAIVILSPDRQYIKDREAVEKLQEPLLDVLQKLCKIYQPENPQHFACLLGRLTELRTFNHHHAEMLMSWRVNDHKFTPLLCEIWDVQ
# T2 sequence (P28700 1-467 partner): T1 sequence (P28700 1-467 partner)
# Method: as §1, §2
# In these experiments, candidate juvenoids were tested for their ability to activate FXR mediated transcription by transfecting Chinese hamster ovary (CHO) cells using the FXR plasmid, mouse RXRα, and the ΔMTV-(EcRE)5-CAT reporter as described herein. An RXR-dependent CRBPII-CAT reporter plasmid was employed in parallel assays to discern activators specific for this receptor.
# GRdEcR/RXR [2] = target: T3, GRdEcR/RXR (Drosophila melanogaster, UniProt P34021, E261P/P331L/Q260P/V259R); test: GRdEcR (GEcEc) chimera with RXR, (EcRE)5-ΔMTV reporter in CHO cells; type: cell-based
# T3 construct: ligation of a Not I-Bam HI fragment containing the DBD and LBD of a modified EcR cDNA, EcRnx; expressed in transfected cells; host or cells: CHO
# T3 sequence (P34021 259-878 V259R/Q260P/E261P/P331L limits assumed): T1 sequence (P34021 259-878 V259R/Q260P/E261P/P331L limits assumed)
# T3 sequence (P28700 1-467 partner): T1 sequence (P28700 1-467 partner)
# Method: as §1, §2, §3, §4
# [3] = final dose of 50 ∝M, 1 = induction less than 2-fold below cytotoxic doses
molecule,measurement,setting,value
C=CC(C)(O)CCC=C(C)C (stereo not shown) [linalool],JH ACTIVITY (units/g),insect,0.08 units/g
CCOP(=S)(OCC)Oc1cc(C)nc(C(C)C)n1 [diazinon],"GEcEc-dependent activity, insecticide plus MUR over MUR alone",GRdEcR/RXR [1],between two and three times
C=CC(C)(O)CCCC(C)CCCC(C)CCCC(C)C (stereo not shown) [isophytol],JH ACTIVITY (units/g),insect,0 units/g
CC(C)=CCCC(C)=CCCC(C)=CC=O [farnesal],"FXR-dependent CAT activity, induction",FXR; 50 μM,2 fold
same,FXR ACTIVITY (fold-induction),FXR; [3],2 fold-induction
same,JH ACTIVITY (units/g),insect,32 units/g
precocene,inhibition of FXR-dependent activity in the CHO cell-based assay,FXR,did not inhibit
same,"GEcEc-dependent activity, insecticide plus MUR over MUR alone",GRdEcR/RXR [1],between two and three times
"C[C@H](CCC(=O)O)[C@H]1CC[C@H]2[C@@H]3[C@H](O)C[C@@H]4C[C@H](O)CC[C@]4(C)[C@H]3CC[C@]12C [CDCA, chenodeoxycholic acid]",induction of GEcEc,GRdEcR/RXR [2]; data not shown,did not induce
CC(C)=CCC/C(C)=C/CC/C(C)=C/CC/C(C)=C/CC/C(C)=C/CC/C(C)=C/CC/C(C)=C/CC/C(C)=C/CC/C(C)=C/CO [solanesol],JH ACTIVITY (units/g),insect,0.05 units/g
CC(=O)OCC=C(C)CCC=C(C)CCC=C(C)C [farnesyl acetate],JH ACTIVITY (units/g),insect,5.4 units/g
CCOP(=S)(OCC)Oc1nc(Cl)c(Cl)cc1Cl [chlorpyrifos],"FXR-dependent activity, induction",FXR; 25 μM,potencies and efficacies like farnesol
same,"GEcEc-dependent activity, insecticide plus MUR over MUR alone",GRdEcR/RXR [1],nine times
geranyl linalool,JH ACTIVITY (units/g),insect,0.14 units/g
"CC(C)=CCC/C(C)=C/CC/C(C)=C/CO [farnesol, all-trans farnesol]",increase in GEcEc activity over that provided by MUR alone,GRdEcR/RXR [2]; 45 μM farnesol with MUR,4 fold
same,JH ACTIVITY (units/g),insect,140 units/g
CC(C)CCCC(C)CCCC(C)CCO (stereo not shown) [hexahydrofarnesol],JH ACTIVITY (units/g),insect,0 units/g
c1cc2c(cc1[C@H]1OC[C@H]3[C@@H]1CO[C@@H]3c1ccc3c(c1)OCO3)OCO2 [sesamin],"FXR-dependent activity, induction",FXR; 100 μM,12 fold
same,FXR ACTIVITY (fold-induction),"FXR; dose 100 μM, 1 = no increase over vehicle",12 fold-induction
same,potentiation of MUR-inducible GEcEc-dependent activity,"GRdEcR/RXR [2]; 25 μM test compound, 0.2 μM muristerone A",between two and four times
C/C(=C\CO)CCC[C@H](C)CCC[C@H](C)CCCC(C)C [phytol],"FXR-dependent CAT activity, induction",FXR; 50 μM,three times
same,FXR ACTIVITY (fold-induction),FXR; [3],3 fold-induction
same,JH ACTIVITY (units/g),insect,32 units/g
CC1(C)C(C=C(Cl)Cl)C1C(=O)OCc1cccc(Oc2ccccc2)c1 (stereo not shown) [permethrin],"GEcEc-dependent activity, insecticide plus MUR over MUR alone",GRdEcR/RXR [1],between two and three times
CCOP(=S)(OCC)Oc1ccc2c(C)c(Cl)c(=O)oc2c1 [coumaphos],"GEcEc-dependent activity, insecticide plus MUR over MUR alone",GRdEcR/RXR [1],between two and three times
CC(C)CCC[C@@H](C)[C@H]1CC[C@H]2[C@@H]3[C@H](O)C=C4C[C@@H](O)CC[C@]4(C)[C@H]3CC[C@]12C [7α-hydroxycholesterol],"FXR-dependent transcription, induction",FXR; 7.5 μM,not
CC(C)=CCC1=C(O)C(C(=O)CC(C)C)=C(O)C(CC=C(C)C)(CC=C(C)C)C1=O [Lupulone],"FXR-dependent CAT activity, induction",FXR; 20 μM,inert
same,FXR ACTIVITY (fold-induction),"FXR; dose 20 μM, 1 = no increase over vehicle",1 fold-induction
CC(C)=CCC/C(C)=C/CO [geraniol],"FXR-dependent activity, induction",FXR; dose not stated,neither the monoterpenes linalool (200 μM) nor geraniol were effective
same,FXR ACTIVITY (fold-induction),FXR; [3],1 fold-induction
same,JH ACTIVITY (units/g),insect,0 units/g
ClC1=C(Cl)C2(Cl)C3C(Cl)C(Cl)CC3C1(Cl)C2(Cl)Cl (stereo not shown) [chlordane],"FXR-dependent CAT activity, induction",FXR; 5 μM,7 fold
same,FXR ACTIVITY (fold-induction),FXR; dose 5 μM,7 fold-induction
COc1cc2ccc(=O)oc2cc1O [7-hydroxy-6-methoxycoumarin],"FXR-dependent activity, induction",FXR; 1 mM,ineffectiveness
